# Assay results from patent US20210330611A1, “THERAPY FOR NEUROLOGICAL DISEASES/DISORDERS” (priority 2020, published 2021).
# Where “and” joins values, the source holds several entries; their conditions need not be identical. Identical values can stand only once. Counter-ions that a name gives are not always drawn. Like-named read-outs stand apart in the source and are kept apart here.
# What was measured:
# [1] = test system: LPS-induced microglia activation; experiment: Image-based assay of LPS-induced microglia activation (HTS and dose response); assay type: cell-based, rat; details: Rattus norvegicus, Microglia; for inhibition at 10 µM: primary microglia HTS, LPS stimulation, increased cell size (>800 μm^2) as marker of activation, read-out: LPS % inhibition
# in vitro [2] = details: rat
# [3] = test system: fibrin-induced microglia activation; experiment: Image-based assay of fibrin-induced microglia activation (HTS and dose response); assay type: cell-based, rat; details: for IC50 / inhibition at 10 µM: Rattus norvegicus, Microglia; for inhibition at 10 µM: primary microglia HTS, fibrin stimulation, increased cell size (>800 μm^2) as marker of activation, read-out: Fibrin % inhibition
# in vitro [4] = details: rat, Cell Toxicity IC50 (uM) [cFib assay]
# primary rat microglia [5] = experiment: Cell toxicity (dead cells, size <150 μm2) in coated fibrin (cFib) assay; details: primary microglia HTS, fibrin stimulation; decreased size (<150 μm^2) as marker of toxicity;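 for Fibrin % cell toxicity: share of dead cells sized under 150 µm2 at 10 µM in fibrin-stimulated microglia HTS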
# primary rat microglia [6] = experiment: Cell toxicity (dead cells, size <150 μm2) in LPS assay; details: for LPS % cell toxicity: primary microglia HTS, LPS stimulation, decreased size (<150 μm^2) as marker of toxicity; for IC50: read-out: Cell Toxicity IC50 (uM) [LPS assay], LPS assay
# [7] = test system: fibrin- and LPS-induced microglia activation; experiment: cells; assay type: cell-based, rat; details: for inhibition at 10 µM: Rattus norvegicus; for Activity: Table 7, fib = fibrin, LPS, tox = toxicity
# [8] = 48 h, Table 1, dose response 0.001-20 μM, triplicates, primary rat microglia, 48 h, read-out: LPS IC50
# [9] = LPS-induced microglia activation, dose response, read-out: LPS IC50 (uM) (Suppl. Table 7)
# [10] = Table 3, read-out: LPS IC50 (uM) (Suppl. Table 7)
# [11] = dose response, LPS-induced microglia activation, read-out: LPS IC50
# [12] = 48 h, Table 1, dose response 0.001-20 μM, triplicates, primary rat microglia, 48 h, read-out: Fibrin IC50
# [13] = Table 3, read-out: Fibrin IC50 (uM) (Suppl. Table 7)
# [14] = dose response, fibrin-induced microglia activation, read-out: Fibrin IC50
# [15] = fibrin-induced microglia activation, dose response, read-out: Fibrin IC50 (uM) (Suppl. Table 7)
# [16] = HTS of 1907 compounds, quadrant by fibrin and LPS inhibition
# [17] = Microglia, Table 3, read-out: Cherry-picked Hit (Suppl. Table 7)
# [18] = Microglia, HTS hit classification, read-out: Hit
# [19] = quadrant by fibrin and LPS inhibition in HTS of 1907 compounds
# [20] = Table 6, read-out: LPS IC50 (uM) (Suppl. Table 7)
# [21] = Table 6, read-out: Fibrin IC50 (uM) (Suppl. Table 7)
# [22] = hit classification in microglia HTS, read-out: Cherry-picked Hit (Suppl. Table 7)
# [23] = listed as Medroxyprogesterone Ac
SMILES,"IC50 [1, 8] [µM]",inhibition at 10 µM ([1]; 48 h) [%],"IC50 [1, 9] [µM]","IC50 [1, 11] [µM]",IC50 (in vitro [2]) [nM],"IC50 [3, 12] [µM]","IC50 [3, 14] [µM]","IC50 [3, 15] [µM]",inhibition at 10 µM [3] [%],IC50 (in vitro [4]; Table 3) [µM],IC50 (in vitro [4]; cFib assay) [µM],Fibrin % cell toxicity (primary rat microglia [5]),LPS % cell toxicity (primary rat microglia [6]),IC50 (primary rat microglia [6]) [µM],"Quadrant (FIG. 5b) [7, 16]","inhibition at 10 µM [7, 17] [%]","inhibition at 10 µM [7, 18] [%]","Quadrant (FIG. 5b) ([7]; Table 1, screen at 10 μM)","Quadrant (FIG. 5b) ([7]; Table 3, screen at 10 μM)","Quadrant (FIG. 5b) [7, 19]",other results
"C[C@H](N)[C@H](O)c1ccc(O)c(O)c1 [Levonordefrin, reference compound]",> 20,36,> 20,> 20,> 20000,0.9,0.9,0.9,70,> 20,> 20,1%,0%,> 20,Q3,> 50,> 50,Q3,Q3,Q3,"IC50 [1, 10]: > 20 µM; Fibrin Selectivity [3]: 21; Fibrin Selectivity (LOG10) [3]: 1.33; IC50 [3, 13]: 0.9 µM"
"C[C@]12CCC(=O)C=C1CC[C@@H]1[C@@H]2[C@@H](O)C[C@@]2(C)[C@H]1CC[C@]2(O)C(=O)CO [Hydrocortisone, reference compound]",–,–,–,–,> 20000,–,–,–,104,> 20,> 20,2% and 4%,2% and 1% and 5%,> 20,Q2,> 50,> 50,Q2,Q2,Q2,"IC50 [1, 20]: 18 µM; IC50 ([1]; Table 7, read-out: LPS_IC50): 0.002 µM; IC50 [3, 21]: 0.03 µM; IC50 ([3]; Table 7, read-out: fib_IC50): 0.018 µM; IC50 (in vitro [4]; cFib assay, Table 6): > 20 µM; IC50 (primary rat microglia [6]; Table 6): > 20 µM; Quadrant (FIG. 5b) ([7]; Table 2, screen at 10 μM): Q2; Activity [7]: fib/LPS; Quadrant (FIG. 5b) ([7]; microglia HTS, Table 6): Q2"
"CN(C)CCc1c[nH]c2ccc(CS(=O)(=O)N3CCCC3)cc12 [Almotriptan, reference compound]",> 20,85,> 20,> 20,> 20000,> 20,> 20,> 20,101,–,> 20,2%,1%,–,Q2,–,> 50,Q2,–,Q2,"inhibition at 10 µM [7, 22]: > 50%"
"CNC(C)(C)Cc1ccccc1 [Mephentermine sulfate, reference compound]",> 20,31,> 20,> 20,> 20000,> 20,> 20,> 20,60,–,> 20,2%,1%,–,Q3,–,> 50,Q3,–,Q3,"inhibition at 10 µM [7, 22]: > 50%"
"[H]/N=C(/NCCCCC)N/N=C/c1c[nH]c2ccc(OC)cc12 [Tegaserod maleate, reference compound]",19,86,19,19,> 20000,1,1,1,100,> 20,> 20,2%,2%,> 20,Q2,> 50,> 50,Q2,Q2,Q2,"IC50 [1, 10]: 19 µM; Fibrin Selectivity [3]: 20; Fibrin Selectivity (LOG10) [3]: 1.29; IC50 [3, 13]: 1 µM"
"COc1c(C)c2c(c(O)c1C/C=C(\C)CCC(=O)OCCN1CCOCC1)C(=O)OC2 [Mycophenolate mofetil, reference compound]",1,79,1,1,> 20000,2,2,2,94,–,> 20,2%,2%,–,Q2,–,> 50,Q2,–,Q2,"inhibition at 10 µM [7, 22]: > 50%"
"CCCC(=O)O[C@]1(C(=O)CO)CC[C@H]2[C@@H]3CCC4=CC(=O)CC[C@]4(C)[C@H]3[C@@H](O)C[C@@]21C [Hydrocortisone butyrate, reference compound]",2,78,2,2,> 20000,0.02,0.02,0.02,108,> 20,> 20,2%,2%,> 20,Q2,> 50,> 50,Q2,Q2,Q2,"IC50 [1, 10]: 2 µM; IC50 [1, 20]: 2 µM; IC50 ([1]; Table 7, read-out: LPS_IC50): 0.005 µM; Fibrin Selectivity [3]: 89; Fibrin Selectivity (LOG10) [3]: 1.95; IC50 [3, 13]: 0.02 µM; IC50 [3, 21]: 0.02 µM; IC50 ([3]; Table 7, read-out: fib_IC50): 0.071 µM; IC50 (in vitro [4]; cFib assay, Table 6): > 20 µM; IC50 (primary rat microglia [6]; Table 6): > 20 µM; Quadrant (FIG. 5b) ([7]; Table 2, screen at 10 μM): Q2; Activity [7]: fib/LPS; Quadrant (FIG. 5b) ([7]; microglia HTS, Table 6): Q2"
"c1ccc2c(c1)OCC(C1=NCCN1)O2 (centres unmarked) [Idazoxan hydrochloride, reference compound]",2,14,2,2,> 20000,0.4,0.4,0.4,70,> 20,> 20,2%,0%,> 20,Q3,> 50,> 50,Q3,Q3,Q3,"IC50 [1, 10]: 2 µM; Fibrin Selectivity [3]: 5; Fibrin Selectivity (LOG10) [3]: 0.69; IC50 [3, 13]: 0.4 µM"
"CCCCC1=NC2(CCCC2)C(=O)N1Cc1ccc(-c2ccccc2-c2nnn[nH]2)cc1 [Irbesartan, reference compound]",> 20,31,> 20,> 20,> 20000,> 20,> 20,> 20,66,–,> 20,2%,1%,–,Q3,–,> 50,Q3,–,Q3,"inhibition at 10 µM [7, 22]: > 50%"
"CC(=O)O[C@]1(C(C)=O)CC[C@H]2[C@@H]3C[C@H](C)C4=CC(=O)CC[C@]4(C)[C@H]3CC[C@@]21C [Medroxyprogesterone acetate, reference compound]",> 20,56,> 20,> 20,> 20000,0.3,0.5,0.3,72,> 20,> 20,1%,1%,> 20,Q2,> 50,> 50,Q2,Q2,Q2,"IC50 [1, 10]: > 20 µM; IC50 [1, 20]: > 20 µM; IC50 [3, 13]: 0.3 µM; IC50 [3, 21]: 0.3 µM; Fibrin Selectivity (LOG10) ([3]; fibrin vs LPS, LOG10, Table 6): 1.84 and 1.61; Fibrin Selectivity ([3]; fibrin vs LPS, Table 6): 70 and 41; Fibrin Selectivity [3, 23]: 70 and 41; Fibrin Selectivity (LOG10) [3, 23]: 1.84 and 1.61; Fibrin Selectivity ([3]; listed as Medroxyprogesterone Acetate): 70 and 41; IC50 (in vitro [4]; cFib assay, Table 6): > 20 µM; IC50 (primary rat microglia [6]; Table 6): > 20 µM; Quadrant (FIG. 5b) ([7]; microglia HTS, Table 6): Q2"
